Test results as given in US20240067693A1, “POLYPEPTIDES AND USES THEREOF” (MEDIMMUNE LIMITED, priority 2020, published 2024).
Numbered stars: 1 amine (or outer) side, 2 acyl side, 3 side chain; on linkers, the order of the positions; unused ones are H or OH. Bridge positions count the residues as written; N and C are the ends. Square brackets hold non-standard residues; d marks the D form. Side chains are listed from the residue outwards. Peptide text beside a SMILES is read from it. * marks the point of attachment. C20 diacid = O=C(O)CCCCCCCCCCCCCCCCCCC(=O)*; C18 diacid = O=C(O)CCCCCCCCCCCCCCCCC(=O)*; γGlu = O=C(O)[C@H](CCC(=O)[*:2])N[*:1]; Dab = NCC[C@H](N)C(=O)O; Aib = CC(C)(N)C(=O)O

What was measured:
[1] = target: T1, human amylin receptor (calcitonin receptor co-expressed with receptor activity modifying protein, RAMP3) (hAMYR3) (Homo sapiens, UniProt O60896+P30988); assay: cAMP production in 1321N1 cells with stable recombinant expression of human amylin receptor (hAMYR3); assay type: cell-based; conditions: for Ratio (selectivity hAMYR vs hCTR, ratio of EC50 values at the two receptors): EC50 hCTR / EC50 hAMYR3; for EC50: cAMP, 1321N1 cells, assay buffer with 0.1% BSA, read-out: EC50 (pM) hAMYR3
T1 construct: expressed in transfected cells
T1 sequence (P30988 25-474): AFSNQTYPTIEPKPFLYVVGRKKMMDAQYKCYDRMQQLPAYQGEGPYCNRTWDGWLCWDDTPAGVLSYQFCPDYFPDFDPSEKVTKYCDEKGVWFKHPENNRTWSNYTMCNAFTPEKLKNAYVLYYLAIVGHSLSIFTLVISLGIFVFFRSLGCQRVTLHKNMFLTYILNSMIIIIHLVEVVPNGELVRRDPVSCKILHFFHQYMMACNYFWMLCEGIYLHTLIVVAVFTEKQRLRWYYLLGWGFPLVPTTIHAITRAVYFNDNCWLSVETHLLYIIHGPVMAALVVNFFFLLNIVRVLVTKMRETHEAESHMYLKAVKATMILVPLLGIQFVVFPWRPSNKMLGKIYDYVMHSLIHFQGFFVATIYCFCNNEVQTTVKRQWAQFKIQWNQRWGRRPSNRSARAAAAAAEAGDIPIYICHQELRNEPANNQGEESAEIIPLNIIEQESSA
T1 sequence (O60896 24-148 partner): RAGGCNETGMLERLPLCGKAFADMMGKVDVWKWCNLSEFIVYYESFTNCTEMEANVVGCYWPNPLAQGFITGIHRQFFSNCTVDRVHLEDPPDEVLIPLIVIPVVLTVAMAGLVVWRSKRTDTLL
Procedure, shortened: (§1)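 Thawed cells in HBSS/0.1% BSA/25 mM HEPES pH 7.4 with 0.5 mM IBMX were incubated with peptides 30 min at room temperature; cAMP read by HTRF. EC50 from 4-parameter fit of % activation relative to maximal amylin or calcitonin effect.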

[2] = target: T2, human calcitonin receptor (hCTR) (Homo sapiens, UniProt P30988); assay: cAMP production in 1321N1 cells with stable recombinant expression of human calcitonin receptor (hCTR); assay type: cell-based; conditions: cAMP, 1321N1 cells, assay buffer with 0.1% BSA; read-out: EC50 (pM) hCTR
T2 construct: expressed in transfected cells
T2 sequence (P30988 25-474): T1 sequence (P30988 25-474)
Procedure, shortened: as §1

CC[C@H](C)[C@H](NC(=O)[C@@H]1CCCN1C(=O)CNC(=O)[C@H](Cc1ccccc1)NC(=O)[C@H](CC(N)=O)NC(=O)[C@H](CC(N)=O)NC(=O)[C@H](CO)NC(=O)[C@H](CO)NC(=O)[C@H](Cc1c[nH]cn1)NC(=O)C(C)(C)NC(=O)[C@H](CC(C)C)NC(=O)[C@H](Cc1ccccc1)NC(=O)[C@H](CC(N)=O)NC(=O)[C@H](C)NC(=O)[C@H](CC(C)C)NC(=O)[C@H](CCCNC(=N)N)NC(=O)[C@H](CCC(N)=O)NC(=O)[C@@H](NC(=O)[C@H](C)NC(=O)[C@@H]1CSSC[C@H](NC(=O)[C@H](CCCCN)NC(=O)[C@@H](N)CCCCNC(=O)CC[C@H](NC(=O)CCCCCCCCCCCCCCCCC(=O)O)C(=O)O)C(=O)N[C@@H](CC(N)=O)C(=O)N[C@@H]([C@@H](C)O)C(=O)N[C@@H](C)C(=O)N[C@@H]([C@@H](C)O)C(=O)N1)[C@@H](C)O)C(=O)N[C@@H](CC(C)C)C(=O)N1CCC[C@H]1C(=O)N1CCC[C@H]1C(=O)N[C@H](C(=O)NC(C)(C)C(=O)N[C@H](C(=O)NCC(=O)N[C@@H](CO)C(=O)N[C@@H](CC(N)=O)C(=O)N[C@H](C(=O)N[C@@H](Cc1ccc(O)cc1)C(N)=O)[C@@H](C)O)C(C)C)[C@@H](C)O [Peptide 98, K(γE-C18diacid)K[CNTATC]ATQRLANFL(Aib)HSSNNFGPILPPT(Aib)VGSNTY-amide] (H-K([γGlu-C18 diacid])KCNTATCATQRLANFL[Aib]HSSNNFGPILPPT[Aib]VGSNTY-NH2; disulfide 3-8; N-terminus assumed)
Ratio (selectivity hAMYR vs hCTR, ratio of EC50 values at the two receptors) [1]: 1
EC50 [1]: 942 pM
EC50 [2]: 972 pM

CC[C@H](C)[C@H](NC(=O)[C@H](C)NC(=O)[C@@H]1CCCN1C(=O)[C@H](Cc1ccccc1)NC(=O)[C@H](CC(N)=O)NC(=O)C(C)(C)NC(=O)[C@H](CO)NC(=O)[C@H](CO)NC(=O)[C@H](Cc1c[nH]cn1)NC(=O)[C@@H](NC(=O)[C@H](CC(C)C)NC(=O)[C@H](Cc1ccccc1)NC(=O)[C@H](CC(N)=O)NC(=O)[C@H](C)NC(=O)[C@H](CC(C)C)NC(=O)[C@H](CCCNC(=N)N)NC(=O)[C@H](CCC(N)=O)NC(=O)[C@@H](NC(=O)[C@H](C)NC(=O)[C@@H]1CSSC[C@H](NC(=O)[C@@H](N)CCCCNC(=O)CC[C@H](NC(=O)CC[C@H](NC(=O)CCCCCCCCCCCCCCCCC(=O)O)C(=O)O)C(=O)O)C(=O)N[C@@H](CC(N)=O)C(=O)N[C@@H]([C@@H](C)O)C(=O)N[C@@H](C)C(=O)N[C@@H]([C@@H](C)O)C(=O)N1)[C@@H](C)O)C(C)C)C(=O)N[C@@H](CC(C)C)C(=O)N[C@@H](CO)C(=O)N1CCC[C@H]1C(=O)N[C@H](C(=O)N[C@@H](CCN)C(=O)N[C@H](C(=O)NCC(=O)N[C@@H](CO)C(=O)N[C@@H](CC(N)=O)C(=O)N[C@H](C(=O)N[C@@H](Cc1ccc(O)cc1)C(N)=O)[C@@H](C)O)C(C)C)[C@@H](C)O [Peptide 122, K(γE-γE-C18diacid)[CNTATC]ATQRLANFLVHSS(Aib)NFPAILSPT(Dab)VGSNTY-amide] (H-K([γGlu-γGlu-C18 diacid])CNTATCATQRLANFLVHSS[Aib]NFPAILSPT[Dab]VGSNTY-NH2; disulfide 2-7)
Ratio (selectivity hAMYR vs hCTR, ratio of EC50 values at the two receptors) [1]: 9
EC50 [1]: 655 pM
EC50 [2]: 6180 pM

CC[C@H](C)[C@H](NC(=O)[C@@H]1CCCN1C(=O)CNC(=O)[C@H](Cc1ccccc1)NC(=O)C(C)(C)NC(=O)[C@H](CC(N)=O)NC(=O)[C@H](CO)NC(=O)[C@H](CO)NC(=O)[C@H](Cc1c[nH]cn1)NC(=O)[C@@H](NC(=O)[C@H](CC(C)C)NC(=O)[C@H](Cc1ccccc1)NC(=O)[C@H](CC(N)=O)NC(=O)[C@H](C)NC(=O)[C@H](CC(C)C)NC(=O)[C@H](CCCNC(=N)N)NC(=O)[C@H](CCC(N)=O)NC(=O)[C@@H](NC(=O)[C@H](C)NC(=O)[C@@H]1CSSC[C@H](NC(=O)[C@H](CCCCN)NC(=O)[C@@H](N)CCCCNC(=O)CC[C@H](NC(=O)CCCCCCCCCCCCCCCCC(=O)O)C(=O)O)C(=O)N[C@@H](CC(N)=O)C(=O)N[C@@H]([C@@H](C)O)C(=O)N[C@@H](C)C(=O)N[C@@H]([C@@H](C)O)C(=O)N1)[C@@H](C)O)C(C)C)C(=O)N[C@@H](CC(C)C)C(=O)N1CCC[C@H]1C(=O)N1CCC[C@H]1C(=O)N[C@H](C(=O)N[C@@H](CC(N)=O)C(=O)N[C@H](C(=O)NCC(=O)N[C@@H](CO)C(=O)N[C@@H](CC(N)=O)C(=O)N[C@H](C(=O)N[C@@H](Cc1ccc(O)cc1)C(N)=O)[C@@H](C)O)C(C)C)[C@@H](C)O [Peptide 109, K(γE-C18diacid)K[CNTATC]ATQRLANFLVHSSN(Aib)FGPILPPTNVGSNTY-amide] (H-K([γGlu-C18 diacid])KCNTATCATQRLANFLVHSSN[Aib]FGPILPPTNVGSNTY-NH2; disulfide 3-8; N-terminus assumed)
Ratio (selectivity hAMYR vs hCTR, ratio of EC50 values at the two receptors) [1]: 2
EC50 [1]: 82 pM
EC50 [2]: 176 pM

CC[C@H](C)[C@H](NC(=O)[C@@H]1CCCN1C(=O)CNC(=O)[C@H](Cc1ccccc1)NC(=O)[C@H](Cc1c[nH]cn1)NC(=O)[C@H](CC(N)=O)NC(=O)[C@H](CO)NC(=O)[C@H](CO)NC(=O)[C@H](Cc1c[nH]cn1)NC(=O)C(C)(C)NC(=O)[C@H](CC(C)C)NC(=O)[C@H](Cc1ccccc1)NC(=O)[C@H](CC(N)=O)NC(=O)[C@H](C)NC(=O)[C@H](CC(C)C)NC(=O)[C@H](CCCNC(=N)N)NC(=O)[C@H](CCC(N)=O)NC(=O)[C@@H](NC(=O)[C@H](C)NC(=O)[C@@H]1CSSC[C@H](NC(=O)[C@H](CCCCN)NC(=O)[C@@H](N)CCCCNC(=O)CC[C@H](NC(=O)CCCCCCCCCCCCCCCCC(=O)O)C(=O)O)C(=O)N[C@@H](CC(N)=O)C(=O)N[C@@H]([C@@H](C)O)C(=O)N[C@@H](C)C(=O)N[C@@H]([C@@H](C)O)C(=O)N1)[C@@H](C)O)C(=O)N[C@@H](CC(C)C)C(=O)N1CCC[C@H]1C(=O)N1CCC[C@H]1C(=O)N[C@H](C(=O)N[C@@H](CC(N)=O)C(=O)N[C@H](C(=O)NCC(=O)N[C@@H](CO)C(=O)N[C@@H](CC(N)=O)C(=O)N[C@H](C(=O)N[C@@H](Cc1ccc(O)cc1)C(N)=O)[C@@H](C)O)C(C)C)[C@@H](C)O [Peptide 135] (H-K([γGlu-C18 diacid])KCNTATCATQRLANFL[Aib]HSSNHFGPILPPTNVGSNTY-NH2; disulfide 3-8; N-terminus assumed)
Ratio (selectivity hAMYR vs hCTR, ratio of EC50 values at the two receptors) [1]: 1.2
EC50 [1]: 296 pM
EC50 [2]: 345 pM

CC[C@H](C)[C@H](NC(=O)[C@H](CO)NC(=O)[C@H](Cc1c[nH]cn1)NC(=O)[C@@H](NC(=O)[C@H](CC(C)C)NC(=O)[C@H](Cc1ccccc1)NC(=O)[C@H](CC(N)=O)NC(=O)[C@H](C)NC(=O)[C@H](CC(C)C)NC(=O)[C@H](CCCNC(=N)N)NC(=O)[C@H](CCC(N)=O)NC(=O)[C@@H](NC(=O)[C@H](C)NC(=O)[C@@H]1CSSC[C@H](NC(=O)[C@@H](N)CCCCNC(=O)CC[C@H](NC(=O)CC[C@H](NC(=O)CCCCCCCCCCCCCCCCCCC(=O)O)C(=O)O)C(=O)O)C(=O)N[C@@H](CC(N)=O)C(=O)N[C@@H]([C@@H](C)CC)C(=O)N[C@@H](C)C(=O)N[C@@H]([C@@H](C)O)C(=O)N1)[C@@H](C)O)C(C)C)C(=O)N[C@@H](C)C(=O)N[C@@H](CC(N)=O)C(=O)N[C@@H](Cc1ccccc1)C(=O)NCC(=O)N1CCC[C@H]1C(=O)N[C@H](C(=O)N[C@@H](CC(C)C)C(=O)N1CCC[C@H]1C(=O)N1CCC[C@H]1C(=O)N[C@H](C(=O)N[C@@H](CC(N)=O)C(=O)N[C@H](C(=O)NCC(=O)N[C@@H](CO)C(=O)N[C@@H](CCCNC(=N)N)C(=O)N[C@H](C(=O)N[C@@H](Cc1ccc(O)cc1)C(N)=O)[C@@H](C)O)C(C)C)[C@@H](C)O)[C@@H](C)CC [Peptide 118] (H-K([γGlu-γGlu-C20 diacid])CNIATCATQRLANFLVHSIANFGPILPPTNVGSRTY-NH2; disulfide 2-7; N-terminus assumed)
Ratio (selectivity hAMYR vs hCTR, ratio of EC50 values at the two receptors) [1]: 2
EC50 [1]: 417 pM
EC50 [2]: 792 pM
